“Also recorded” adds a separate entry of the source.
B1: MCP-II: mast cell protease II, serine proteinase of mucosal mast cells (protein, UniProt P00770 21-247, looked up)
Mast cell protease 2: IIGGVESIPHSRPYMAHLDIVTEKGLRVICGGFLISRQFVLTAAHCKGREITVILGAHDVRKRESTQQKIKVEKQIIHESYNSVPNLHDIMLLKLEKKVELTPAVNVVPLPSPSDFIHPGAMCWAAGWGKTGVRDPTSYTLREVELRIMDEKACVDYRYYEYKFQVCVGSPTTLRAAFMGDSGGPLLCAGVAHGIVSYGHPDAKPPAIFTRVSTYVPWINAVINTSS

Columns and labels:
[1] = tested on: PAR-2; assay: FZI/0-PAR-2 AP competitive binding experiments in Caco2 cells; parameters: species or system human; conditions: FITC-FZI/0 2×10^−8M, competitor 100× excess (10^−6M)
Method: FIGS. 4A-4D. FZI/0-PAR-2 AP competitive binding experiments.
FZI/0—PAR-2 AP competitive binding experiments. The activation of PAR-2 requires binding of either its tryptase-generated, cleaved N-terminal portion or the synthetic peptide equivalent, PAR-2 AP, to the receptor's extracellular loop 2 (ECL2) (47). To establish whether FZI/0 binds to the same receptor domain, competitive binding experiments were conducted in Caco2 cells. Cell monolayers were incubated with FITC-FZI/0 (2×10^−8M)) either in the presence of an excess of PAR-2 AP (10^−6M) or a scrambled peptide and then analyzed by fluorescence microscopy.

[2] = tested on: Caco2 cell monolayers; assay: PAR-2 AP-induced actin rearrangement in Caco2 cell monolayers; format: cell-based, human; conditions: 10^−6M, vs BSA-treated monolayers
Source text: FIGS. 5A to 5D. Actin cytoskeleton arrangement in Caco2 cells exposed to PAR2-AP (FIG. 5A), BSA (FIG. 5B), PAR2-AP+FZI/0 (FIG. 5C), or PAR-2 AP+FZI/1 (FIG. 5D).
Effect of the Zot/zonulin inhibitor FZI/0 on PAR-2 AP-induced actin rearrangement. It has been recently reported that activation of PAR-2 receptor by PAR-2 AP promotes cytoskeletal reorganization (53). To establish whether this effect can be prevented by the synthetic Zot/zonulin peptide inhibitor, FZI/0, immunofluorescence studies were conducted in Caco2 cell monolayers. […] These cytoskeletal changes were blocked by the pre-incubation with 2×10^−6M FZI/0 (FIG. 5C), but not by the scrambled peptide FZI/1 (FIG. 5D). Therefore, PAR-2 AP and FZI/0 appear to bind to the identical structure on enterocytes.

[3] = tested on: intestinal tissues of wild-type mice; assay: Intestinal TEER in wild-type mice; conditions: vs control tissues
[4] = tested on: mouse intestinal small intestine; assay: Microsnapwell assay, mouse small intestine TEER; conditions: luminal addition; PAR-2 AP 10^−6M, MCP-II 10^−8M; vs untreated tissues

| Molecule | Displacement of FITC-FZI/0 by excess competitor [1] | Displacement of FITC-FZI/0 by excess competitor ([1]; listed as PAR2-AP) | Actin cytoskeleton arrangement (stress fibers) [2] | Effect on intestinal TEER [3] | Effect on TEER [4] |
| --- | --- | --- | --- | --- | --- |
| SLIGRL [PAR-2 AP] | significant reduction of FZI/0 immunofluorescent staining particles | displaced FZI/0 | dissolution of stress fibers | significant drops in TEER; also recorded: comparable drop in intestinal resistance | significant drops in TEER; also recorded: decreased TEER |
| B1 | – | – | – | – | significant drops in TEER; also recorded: decreased TEER |

From US7294689B2, “Agonist polypeptide of receptor for Zot and Zonulin” (University of Maryland, Baltimore, priority 2003, dated 2007)
